Laboratory results from patent US9169509B2, “Topoisomerase 2b as a predictor of susceptibility to anthracycline-induced cardiotoxicity” (Board of Regents, The University of Texas System, priority 2013, dated 2015).
Blank lines part the entries; values can stand above or below the molecule they belong to. Peptide text beside a SMILES is read from it. * marks the point of attachment. Cbz = O=C(OCc1ccccc1)*

How the values were obtained:
Top2b [1] = biological target: T1, Top2b (Homo sapiens, UniProt Q02880); test: Immunoblot of Top2b in U2OS cells treated with Dex and/or MG132; type: cell-based
T1 construct: endogenous in cells; host or cells: U2OS
T1 sequence (Q02880 2-1626 limits assumed): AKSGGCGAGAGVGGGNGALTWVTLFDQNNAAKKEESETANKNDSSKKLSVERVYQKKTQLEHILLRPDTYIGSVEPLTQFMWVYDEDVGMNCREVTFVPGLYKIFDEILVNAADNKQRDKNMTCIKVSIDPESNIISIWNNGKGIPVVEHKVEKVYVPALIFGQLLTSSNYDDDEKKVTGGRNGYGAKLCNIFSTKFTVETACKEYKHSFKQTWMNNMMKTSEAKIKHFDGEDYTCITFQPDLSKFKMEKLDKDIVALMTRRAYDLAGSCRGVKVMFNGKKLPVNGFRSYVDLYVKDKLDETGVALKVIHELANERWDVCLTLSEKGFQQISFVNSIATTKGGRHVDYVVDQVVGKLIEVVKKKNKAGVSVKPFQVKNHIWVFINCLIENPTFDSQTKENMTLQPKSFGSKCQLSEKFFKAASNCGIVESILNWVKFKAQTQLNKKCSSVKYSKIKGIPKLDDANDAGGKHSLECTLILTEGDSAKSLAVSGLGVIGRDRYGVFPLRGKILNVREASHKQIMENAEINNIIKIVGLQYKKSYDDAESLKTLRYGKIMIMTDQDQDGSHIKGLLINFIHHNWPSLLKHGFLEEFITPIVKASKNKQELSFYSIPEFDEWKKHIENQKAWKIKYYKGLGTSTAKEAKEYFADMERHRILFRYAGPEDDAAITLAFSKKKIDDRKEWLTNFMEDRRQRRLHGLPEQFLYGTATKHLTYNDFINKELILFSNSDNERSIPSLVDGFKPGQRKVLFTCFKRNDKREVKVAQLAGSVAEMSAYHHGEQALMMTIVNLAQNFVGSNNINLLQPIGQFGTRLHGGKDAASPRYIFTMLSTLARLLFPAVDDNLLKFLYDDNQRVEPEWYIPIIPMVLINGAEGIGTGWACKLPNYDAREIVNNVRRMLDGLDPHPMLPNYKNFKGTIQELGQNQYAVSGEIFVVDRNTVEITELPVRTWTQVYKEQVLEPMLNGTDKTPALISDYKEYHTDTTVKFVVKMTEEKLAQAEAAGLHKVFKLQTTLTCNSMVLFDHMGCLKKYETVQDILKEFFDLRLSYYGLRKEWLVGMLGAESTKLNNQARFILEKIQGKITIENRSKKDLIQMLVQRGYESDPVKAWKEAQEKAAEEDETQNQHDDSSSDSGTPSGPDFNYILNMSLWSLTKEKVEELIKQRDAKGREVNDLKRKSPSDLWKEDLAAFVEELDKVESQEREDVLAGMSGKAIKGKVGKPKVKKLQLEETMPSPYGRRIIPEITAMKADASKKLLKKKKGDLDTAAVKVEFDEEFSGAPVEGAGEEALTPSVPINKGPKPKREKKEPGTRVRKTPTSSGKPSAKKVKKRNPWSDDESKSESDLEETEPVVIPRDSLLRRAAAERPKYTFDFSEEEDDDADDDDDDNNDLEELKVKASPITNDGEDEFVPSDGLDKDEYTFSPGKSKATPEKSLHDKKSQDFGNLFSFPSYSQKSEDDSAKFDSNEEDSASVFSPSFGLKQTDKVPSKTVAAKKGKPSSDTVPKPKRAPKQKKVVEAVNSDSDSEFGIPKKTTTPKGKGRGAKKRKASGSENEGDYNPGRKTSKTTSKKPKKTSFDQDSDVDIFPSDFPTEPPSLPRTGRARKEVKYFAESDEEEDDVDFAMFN
Description: (§1) FIG. 10. […] U2OS cells were treated with 100 mM Dex and/or 10 mM MG132, a proteosome inhibitor, for 2, 4, or 6 hours. Cell lysates were immunoblotted with anti-Top2a, Top2b, or actin antibodies.
(§2) The effect of Dex treatment of Top2a levels was also tested. Briefly, U2OS cells were treated with 100 mM Dex and/or 10 mM MG132 (a proteosome inhibitor) for 2, 4, or 6 hours. Cell lysates were immunoblotted with anti-Top2a, Top2b, or actin antibodies.

mouse heart = test: Cardiac MRI for measuring cardiac function after chronic doxorubicin
Description: Before Cre induction, cardiac MRI scan was performed on each mouse to examine the baseline ejection fraction. Cardiomyocyte-specific Cre induction was carried out by treating mice with tamoxifen. […] Doxorubicin treatment (5 mg/kg, i.p., once a week for 5 weeks) was started 7 days after the second MRI scan. Two weeks after the last dose of doxorubicin, a third MRI scan was performed (FIG. 6a).
Every mouse in the EF experiments received 3 MRI scans, i.e., a baseline scan, a second scan 2 weeks after the end of tamoxifen treatment, and a third scan 2 weeks after the last dose of doxorubicin. […] Mice were anesthetized with isoflurane (2.5% in 97.5% O2), and scanned on a 7.0 T Biospec small animal scanner (Bruker Biospin Inc., Billerica, Mass.). Imaging gradients with 60 mm inner diameter (ID) were used with a 35 mm ID linear birdcage-style volume resonator. T1-weighted anatomic reference images were acquired using a three dimension (3D) fast low-angle shot (FLASH) gradient echo sequence. A retrospectively gated FLASH pulse sequence was used to acquire cardiac cine images with excellent contrast between bright blood and adjacent myocardium. To measure volumetric left ventricular ejection fraction (LVEF), at least 6 short axis images were scanned at 1 mm interval from the apex to the base of the heart. End-diastolic (ED) and end-systolic (ES) left ventricular volumes were obtained by the biplane area length method, and LVEF was calculated with the equation: [(ED-ES)/ED]/100.
Two weeks after completion of tamoxifen treatment mice were treated with doxorubicin or drug vehicle. Two cohorts of mice were treated with different schedules. […] To evaluate the chronic effect of doxorubicin on cardiac function, doxorubicin (5 mg/kg, i.p.) was administered once a week for 5 weeks, and cardiac function was examined 2 weeks after the last dose of doxorubicin by using MRI.
The effect of chronic doxorubicin treatment (5 mg/kg, ip, once a week for 5 weeks) was evaluated for its effect on ejection fraction.

[2] = tested on: DNA double strand breaks in the heart; test: Detection of DNA double strand breaks (γ-H2AX staining) in heart sections; type: in vivo, mouse; conditions: dexrazoxane 100 mg/kg ip 8 hrs prior to doxorubicin 25 mg/kg; hearts 16 hr after doxorubicin
Description: After mice were sacrificed, hearts were perfused with ice-cold PBS, quickly removed, embedded in OCT compound (Fisher Scientific), and snap-frozen in liquid nitrogen. The heart was sectioned to 5 μm-thick slices using a cryostat. Heart sections were stored at −80° C. until immunofluorescence staining was performed. Heart sections were rinsed with PBS at room temperature, fixed in BD Cytofix/Cytoperm solution (BD Biosciences) for 15 m, washed in PBS, and permeabilized in BD Perm/Wash solution for 30 m. Heart sections were first blocked with BSA (2 mg/ml) for 30 m, then incubated with an mouse monoclonal anti-γ-H2AX antibody conjugated with Alexa Fluor 555 (Clone N1-431, BD Biosciences) for 1 h. Nuclei were stained with DAPI (Sigma, 1 μg/ml PBS), and the slides were sealed for examination with an Olympus epifluorescence microscope (Model BX51). To quantify DSBs, the numbers of γ-H2AX-positive nuclei and the total nuclei were counted in 5 microscopic fields (400×) per section. For each mouse, five heart sections were counted to determine the percentage of γ-H2AX-positive nuclei.
To further confirm the cardio-protective effect of Dex, DNA double strand breaks were assessed in heart tissues. Dexrazoxane (100 mg/kg) was injected (ip) 8 hrs prior to doxorubicin (25 mg/kg) treatment. Hearts were harvested 16 hr after doxorubicin treatment. The percentage of γH2AX-positive nuclei was counted in 5 fields (400×) in each heart section. Five sections were counted in each heart to determine the average percentage of γH2AX-positive nuclei.

heart sections = test: Detection of apoptosis in heart sections (TUNEL assay); type: in vivo, mouse; conditions: dexrazoxane 100 mg/kg ip 8 hrs prior to doxorubicin 25 mg/kg ip; hearts 16 hrs after doxorubicin
Description: Apoptosis was detected by using TUNEL assay on heart sections. Heart harvest, sectioning, and storage were described above. Heart sections were warmed to room temperature before the apoptotic nuclei were stained by using a commercially available kit (In Situ Cell Death Detection Kit, Cat. No. 12156792910, Roche Applied Science). The entire staining procedures were performed according to the manufacturer's instructions. The nuclei were stained with DAPI (Sigma) before the slides were sealed and examined with an Olympus epifluorescence microscope (Model BX51). The apoptotic nuclei and the total nuclei per heart section were counted at 200× magnification. The apoptotic nuclei in 5 heart sections of each mouse were counted and averaged.
The cardio-protective effect of Dex against doxirubin-induced apoptosis was assessed in heart tissues. Dexrazoxane (100 mg/kg) was injected (ip) 8 hrs prior to doxorubicin (25 mg/kg) injection (ip). One group received only doxorubicin and a second group received only dexrazoxane. Hearts were harvested 16 hrs after doxorubicin treatment. The numbers of TUNEL-positive nuclei were counted in five fields in each heart section.

Top2b [3] = biological target: T2, Top2b (Mus musculus, UniProt Q64511); test: Western blot of Top2b protein levels in heart tissue after dexrazoxane; type: in vivo; conditions: dexrazoxane 100 mg/kg i.p.
T2 construct: Frozen tissues were homogenized in lysis buffer and sonicated to extract proteins for western blotting; from tissue; host or cells: mouse heart
T2 sequence (Q64511 2-1612 limits assumed): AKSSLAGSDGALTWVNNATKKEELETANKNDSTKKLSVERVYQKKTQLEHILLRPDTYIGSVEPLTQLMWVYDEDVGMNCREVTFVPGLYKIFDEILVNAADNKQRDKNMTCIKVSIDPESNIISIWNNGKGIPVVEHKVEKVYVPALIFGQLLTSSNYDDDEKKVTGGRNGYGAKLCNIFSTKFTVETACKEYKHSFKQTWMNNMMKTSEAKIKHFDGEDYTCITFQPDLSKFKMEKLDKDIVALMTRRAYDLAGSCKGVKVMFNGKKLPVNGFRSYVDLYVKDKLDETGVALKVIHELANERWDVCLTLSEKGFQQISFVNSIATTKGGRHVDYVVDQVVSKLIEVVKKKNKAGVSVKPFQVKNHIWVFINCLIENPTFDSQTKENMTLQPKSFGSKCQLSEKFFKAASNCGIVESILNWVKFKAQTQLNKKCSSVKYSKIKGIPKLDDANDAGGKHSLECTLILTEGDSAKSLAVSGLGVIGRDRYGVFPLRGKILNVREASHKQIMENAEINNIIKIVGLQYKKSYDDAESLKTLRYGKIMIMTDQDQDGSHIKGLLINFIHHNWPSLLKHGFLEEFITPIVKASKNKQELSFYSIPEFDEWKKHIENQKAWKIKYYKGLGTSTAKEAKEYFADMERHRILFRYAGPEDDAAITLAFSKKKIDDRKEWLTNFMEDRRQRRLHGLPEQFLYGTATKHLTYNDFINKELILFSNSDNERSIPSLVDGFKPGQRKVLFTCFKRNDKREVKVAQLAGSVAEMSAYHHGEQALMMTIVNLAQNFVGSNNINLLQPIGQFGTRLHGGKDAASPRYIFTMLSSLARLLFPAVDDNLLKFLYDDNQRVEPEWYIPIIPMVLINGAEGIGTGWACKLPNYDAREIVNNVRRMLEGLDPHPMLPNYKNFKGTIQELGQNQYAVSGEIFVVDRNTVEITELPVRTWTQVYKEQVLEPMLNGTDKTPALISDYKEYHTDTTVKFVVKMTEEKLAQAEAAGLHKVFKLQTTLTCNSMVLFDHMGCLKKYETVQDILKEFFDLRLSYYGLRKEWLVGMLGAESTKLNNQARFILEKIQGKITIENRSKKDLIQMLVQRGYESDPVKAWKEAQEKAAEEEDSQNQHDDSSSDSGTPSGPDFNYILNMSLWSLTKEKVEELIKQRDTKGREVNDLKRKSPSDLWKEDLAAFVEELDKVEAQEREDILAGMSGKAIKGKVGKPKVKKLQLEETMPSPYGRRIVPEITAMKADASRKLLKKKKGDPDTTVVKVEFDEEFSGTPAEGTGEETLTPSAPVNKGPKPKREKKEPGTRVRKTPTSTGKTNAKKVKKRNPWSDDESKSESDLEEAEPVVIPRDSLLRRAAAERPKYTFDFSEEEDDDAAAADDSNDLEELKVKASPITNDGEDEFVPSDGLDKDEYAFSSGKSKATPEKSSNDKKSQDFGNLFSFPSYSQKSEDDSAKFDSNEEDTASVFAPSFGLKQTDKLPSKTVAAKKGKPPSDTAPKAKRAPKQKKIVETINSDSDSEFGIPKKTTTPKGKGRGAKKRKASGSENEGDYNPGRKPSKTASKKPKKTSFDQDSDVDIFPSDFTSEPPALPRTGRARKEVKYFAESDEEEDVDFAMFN
Description: Expression of Top2b was examined in the hearts of mice. After sacrifice, the heart was quickly removed and homogenized immediately in lysis buffer. After homogenization, the lysate was sonicated at 4° C. and an aliquot was removed for protein concentration measurement. The lysate was stored at −80° C. for western blot analysis. 20 μg of lysate proteins were electrophoresed and transferred to PVDF membranes. Blots were blocked with 5% non-fat dry milk, and incubated overnight at 4° C. with anti-Top2b antibody (Abcam). To detect mitochondrial proteins, the mitochondria were isolated from cardiomyocytes. The cardiomyocytes were isolated with a Langendorff perfusion system according to a published protocol3. Briefly, heart was removed and rinsed with ice-cold PBS twice before connecting to a Langendorff apparatus through the aorta. The heart was perfused first with perfusion buffer for 3 m at 37° C. (3 ml/min), then digestion buffer (enzyme-containing) buffer at 37° C. for 8-10 m. The heart was disintegrated manually and the tissue/cells were separated by using forceps. The tissue/cell suspension was incubated for another 3-5 m in digestion buffer, then triturate the cells gently using a 1 ml pipette before adding stopping buffer. After purification by centrifugation the mitochondria were isolated from the cardiomyocytes with a kit (Cat. No. MS853, Mitosciences) for separating mitochondria from nuclei and cytosol. The isolated mitochondria were homogenized in lysis buffer and sonicated before being stored at −80° C. until use. 20 μg of lysate proteins were electrophoresed and transferred to PVDF membranes. Blots were blocked incubated overnight at 4° C. with anti-Ndufa3 (Sigma), anti-Atp5a (Abcam) or anti-Sdha antibodies (Abcam). After incubation with HRP-conjugated secondary antibodies for 40 m at room temperature, the blots were detected with a luminol-based detection kit (ECL, GE Health Care).
To test the effect of dexrazoxane (Dex) on Top2b protein levels, mice were treated with dexrazoxane (100 mg/kg, i.p.). At different time points following treatment hearts were removed under anesthesia and perfused with PBS to remove blood. Each heart was cut into 10 pieces and snap-frozen in liquid nitrogen. Frozen tissues were homogenized in lysis buffer and sonicated to extract proteins for western blotting.

Top2a = biological target: T3, Top2a (Homo sapiens, UniProt P11388); test: Immunoblot of Top2a in U2OS cells treated with Dex and/or MG132; type: cell-based; conditions: 100 mM Dex for 2, 4, or 6 hours
T3 construct: endogenous in cells; host or cells: U2OS
T3 sequence (P11388 whole entry): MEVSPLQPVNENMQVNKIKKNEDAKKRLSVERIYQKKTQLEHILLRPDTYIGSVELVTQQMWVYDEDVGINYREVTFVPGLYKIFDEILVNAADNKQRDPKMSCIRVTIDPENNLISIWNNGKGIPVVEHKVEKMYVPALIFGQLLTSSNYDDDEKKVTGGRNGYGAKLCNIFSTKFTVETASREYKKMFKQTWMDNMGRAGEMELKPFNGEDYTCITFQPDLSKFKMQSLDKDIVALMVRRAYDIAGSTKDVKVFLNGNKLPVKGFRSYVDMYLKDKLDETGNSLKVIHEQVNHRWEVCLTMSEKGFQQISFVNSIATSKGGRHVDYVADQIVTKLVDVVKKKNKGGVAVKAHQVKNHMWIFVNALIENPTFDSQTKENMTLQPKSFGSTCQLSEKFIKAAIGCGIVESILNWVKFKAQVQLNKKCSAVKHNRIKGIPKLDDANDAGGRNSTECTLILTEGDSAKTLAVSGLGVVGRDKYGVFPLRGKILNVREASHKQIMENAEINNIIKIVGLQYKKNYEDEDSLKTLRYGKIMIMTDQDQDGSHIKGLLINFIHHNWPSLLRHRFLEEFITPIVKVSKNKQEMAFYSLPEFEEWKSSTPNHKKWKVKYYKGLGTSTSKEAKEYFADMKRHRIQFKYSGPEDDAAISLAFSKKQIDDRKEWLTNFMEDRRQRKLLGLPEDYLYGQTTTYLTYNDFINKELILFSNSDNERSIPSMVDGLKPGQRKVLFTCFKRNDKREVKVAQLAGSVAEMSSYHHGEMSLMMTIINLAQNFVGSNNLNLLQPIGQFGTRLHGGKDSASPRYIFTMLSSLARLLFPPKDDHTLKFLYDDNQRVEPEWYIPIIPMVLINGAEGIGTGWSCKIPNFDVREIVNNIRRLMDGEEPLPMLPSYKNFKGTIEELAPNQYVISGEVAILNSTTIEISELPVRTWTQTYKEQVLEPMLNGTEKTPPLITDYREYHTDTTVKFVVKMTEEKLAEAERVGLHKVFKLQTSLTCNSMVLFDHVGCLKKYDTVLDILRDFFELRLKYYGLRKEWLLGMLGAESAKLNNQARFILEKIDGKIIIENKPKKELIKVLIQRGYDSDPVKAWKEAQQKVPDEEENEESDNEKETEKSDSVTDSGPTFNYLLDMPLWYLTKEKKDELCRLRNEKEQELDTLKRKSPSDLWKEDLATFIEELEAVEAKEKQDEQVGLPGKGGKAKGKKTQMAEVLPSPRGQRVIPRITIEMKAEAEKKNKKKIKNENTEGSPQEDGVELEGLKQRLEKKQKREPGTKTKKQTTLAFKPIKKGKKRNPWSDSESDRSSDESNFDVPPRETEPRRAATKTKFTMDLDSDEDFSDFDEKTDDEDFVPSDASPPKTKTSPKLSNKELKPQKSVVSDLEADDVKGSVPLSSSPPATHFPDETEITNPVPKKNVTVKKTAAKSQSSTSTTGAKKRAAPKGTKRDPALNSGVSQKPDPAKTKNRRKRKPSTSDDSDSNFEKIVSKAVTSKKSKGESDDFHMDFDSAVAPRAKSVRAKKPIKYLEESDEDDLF
Description: as §1, §2

SMILES: CC(C)C[C@@H](C=O)NC(=O)[C@H](CC(C)C)NC(=O)[C@H](CC(C)C)NC(=O)OCc1ccccc1 [MG132] (Cbz-Leu-Leu-Leu-aldehyde)
Effect on Dex-mediated Top2b degradation (Top2b [1]; 10 mM MG132 with 100 mM Dex, 2, 4, or 6 hours): inhibited

Effect on ejection fractions (mouse heart; tamoxifen 25 mg/kg gavage once a day for 5 days, all three Top2b genotype groups): did not significantly affect
SMILES: CC/C(=C(\c1ccccc1)c1ccc(OCCN(C)C)cc1)c1ccccc1 [Tamoxifen, tamoxifen]

Time point at which Top2b levels begin to recover (Top2b [3]): 12 h
Top2b protein level in the heart at 6 hours (Top2b [3]; 6 hours after therapy): nearly undetectable
Top2b protein level in the heart at 24 hours (Top2b [3]; 24 hours): still noticeably reduced
Top2b protein levels in the heart (Top2b [3]; time course): greatly reduced
Degradation of Top2b (Top2b [1]; 100 mM Dex for 2, 4, or 6 hours): caused degradation of Top2b
Degradation of Top2a (Top2a): but not Top2a
Ejection fraction, Dex alone (mouse heart; mice, dexrazoxane 100 mg/kg ip alone): unchanged
SMILES: C[C@@H](CN1CC(=O)NC(=O)C1)N1CC(=O)NC(=O)C1 [dexrazoxane]
Protection against doxorubicin-induced DNA double strand breaks in the heart (γH2AX-positive nuclei) [2]: protects against doxorubicin-induced DNA double strand breaks
Protection against doxorubicin-induced apoptosis in the heart (TUNEL-positive nuclei) (heart sections): protects against doxorubicin-induced apoptosis
Ejection fraction, Dex in combination with doxorubicin (mouse heart; dexrazoxane 100 mg/kg ip 8 hrs prior to doxorubicin 5 mg/kg ip once a week for 5 weeks): unchanged
